Data: patent US20010034357A1, “Substituted pyridine compounds useful for controlling chemical synaptic transmission” (priority 2000, published 2001)
Like-named read-outs stand apart in the source and are kept apart here.

Experiments:
[1] = target: T1, neuronal nicotinic acetylcholine receptors (Rattus norvegicus, UniProt P09483+P12390); test: [3H]-cytisine binding to neuronal nicotinic acetylcholine receptors, crude synaptic membranes from whole rat brain
T1 construct: crude synaptic membrane preparations from whole rat brain; from tissue; host or cells: whole rat brain, crude synaptic membranes
Experimental: The in vitro protocols for determination of nicotinic acetylcholine channel receptor binding potencies of ligands was determined as follows.
Binding of [^3H]-cytisine ([^3H]-CYT) to neuronal nicotinic acetylcholine receptors was accomplished using crude synaptic membrane preparations from whole rat brain (Pabreza et al., Molecular Pharmacol., 1990, 39:9). Washed membranes were stored at −80° C. prior to use. Frozen aliquots were slowly thawed and resuspended in 20 volumes of buffer (containing: 120 mM NaCl, 5 mM KCl, 2 mM MgCl2, 2 mM CaCl2 and 50 mM Tris-Cl, pH 7.4 @4° C.). After centrifuging at 20,000×g for 15 minutes, the pellets were resuspended in 30 volumes of buffer.
The test compounds were dissolved in water to make 10 mM stock solutions. Each solution was then diluted (1:100) with buffer (as above) and further taken through seven serial log dilutions to produce test solutions from 10^−5 to 10^−11 M.
Homogenate (containing 125-150 µg protein) was added to triplicate tubes containing the range of concentrations of test compound described above and [^3H]-CYT (1.25 nM) in a final volume of 500 μL. Samples were incubated for 60 minutes at 4° C., then rapidly filtered through Whatman GF/B filters presoaked in 0.5% polyethyleneimine using 3×4 mL of ice-cold buffer. The filters are counted in 4 mL of Ecolume® (ICN). Nonspecific binding was determined in the presence of 10 μM (−)-nicotine and values were expressed as a percentage of total binding. IC50 values were determined with a four-parameter non-linear regression and IC50 values were converted to K1 values using the Cheng and Prusoff correction (K1=IC50/(1+[ligand]/Kd of ligand).
Each Example number corresponds to the synthetic Examples described above. […] The lower the Ki value, the more affinity for neuronal nicotinic acetylcholine receptors.

mouse hot plate paradigm = mouse hot plate paradigm (analgesia, latency until tenth jump); format: in vivo; settings: mice, intraperitoneal, dosed 30 minutes prior to testing, hot plate 55° C.; for Analgesic MED: minimally effective dose among the doses tested; for Analgesic MED (μmol/kg): footnote symbols for no effect
Experimental: An in vivo protocol was utilized to determine the effectiveness of nicotinic acetylcholine receptor ligands as analgesic agents in the mouse hot plate paradigm.
Separate groups of mice, (n=8/group) were utilized for each dose group. All drugs were administered by the intraperitoneal route of administration. Test drugs were dissolved in water to make a 6.2 mM stock solution. Animals were dosed with this solution (10 mL/kg body weight) for a 62 micromol/kg dose. Lower doses were administered similarly, following serial dilution of the stock solution in half-log increments. Animals were dosed 30 minutes prior to testing in the hot plate. The hot-plate utilized was an automated analgesia monitor (Model #AHP16AN, Omnitech Electronics, Inc. of Columbus, Ohio). The temperature of the hot plate was maintained at 55° C. and a cut-off time of 180 seconds was utilized. A control was run against each compound tested. Latency until the tenth jump was recorded as the dependent measure. An increase in the tenth jump latency relative to the control was considered a significant effect.

[2] = [3H]-CYT 1.25 nM, whole rat brain membranes, 60 minutes at 4° C., Cheng and Prusoff correction, Table 1, read-out: Ki
[3] = [3H]-CYT 1.25 nM, whole rat brain membranes, 60 minutes at 4° C., Cheng and Prusoff correction, Table 2, read-out: K1 (nm)

T1 sequence (P09483 31-630): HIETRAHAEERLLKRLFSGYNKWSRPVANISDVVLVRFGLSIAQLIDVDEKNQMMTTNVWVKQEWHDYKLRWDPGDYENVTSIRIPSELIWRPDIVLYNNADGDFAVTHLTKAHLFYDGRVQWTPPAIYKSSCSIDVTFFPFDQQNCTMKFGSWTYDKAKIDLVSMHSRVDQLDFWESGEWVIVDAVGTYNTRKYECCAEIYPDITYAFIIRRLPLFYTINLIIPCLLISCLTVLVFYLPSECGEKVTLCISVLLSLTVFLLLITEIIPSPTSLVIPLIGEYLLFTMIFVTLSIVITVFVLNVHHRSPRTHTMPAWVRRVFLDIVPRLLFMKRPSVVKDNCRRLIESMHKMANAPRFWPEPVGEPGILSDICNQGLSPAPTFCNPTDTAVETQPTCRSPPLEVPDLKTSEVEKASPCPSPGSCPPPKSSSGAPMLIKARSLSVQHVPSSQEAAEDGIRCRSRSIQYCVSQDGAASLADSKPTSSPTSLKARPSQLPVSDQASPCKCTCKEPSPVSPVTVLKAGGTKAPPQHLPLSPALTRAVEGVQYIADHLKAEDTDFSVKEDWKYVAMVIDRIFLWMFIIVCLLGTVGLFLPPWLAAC
T1 sequence (P12390 25-500): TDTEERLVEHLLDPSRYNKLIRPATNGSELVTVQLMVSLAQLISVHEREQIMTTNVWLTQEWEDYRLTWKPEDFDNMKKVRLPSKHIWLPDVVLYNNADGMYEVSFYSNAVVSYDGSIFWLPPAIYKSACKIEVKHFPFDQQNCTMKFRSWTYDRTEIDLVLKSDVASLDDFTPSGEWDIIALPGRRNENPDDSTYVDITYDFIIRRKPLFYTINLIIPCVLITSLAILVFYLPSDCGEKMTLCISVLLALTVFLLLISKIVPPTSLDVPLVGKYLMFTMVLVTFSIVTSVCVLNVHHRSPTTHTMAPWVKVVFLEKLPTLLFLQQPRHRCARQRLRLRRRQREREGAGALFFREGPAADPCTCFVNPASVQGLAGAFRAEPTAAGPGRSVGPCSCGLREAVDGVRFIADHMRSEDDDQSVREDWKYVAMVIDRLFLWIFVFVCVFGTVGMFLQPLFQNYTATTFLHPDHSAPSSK

C[C@@H](N)COc1ccc(F)nc1.Cc1ccc(S(=O)(=O)O)cc1 [Example 29, 5-[(R)-2-amino-1-propyloxy]-2-fluoro pyridine p-toluenesulfonic acid]
Ki [1, 2]: 6.6 nM
Analgesic MED (mouse hot plate paradigm): 62 µmol/kg

CCCN[C@H](C)COc1ccc(Cl)nc1 [Example 42, 5-[(R)-2-(1-propyl)amino-1-propyloxy]-2-chloro pyridine p-toluenesulfonic acid]
Ki [1, 2]: 7530 nM

C[C@H](N)COc1ccc(F)nc1.Cc1ccc(S(=O)(=O)O)cc1 [Example 4, 5-[(S)-2-amino-1-propyloxy]-2-fluoro pyridine p-toluenesulfonic acid]
Ki [1, 2]: 8.69 nM
Analgesic MED (mouse hot plate paradigm): 6.2 µmol/kg

CC(COc1ccc(Cl)nc1)N(C)C (stereo in doubt) [Example 27, 5-[(S)-2-dimethylamino-1-propyloxy]-2-chloro pyridine p-toluenesulfonic acid]
Analgesic MED (μmol/kg) (mouse hot plate paradigm): * (no effect at 62)

CC(N)CCOc1ccc(F)nc1 (stereo not drawn) [Example 43, 5-(3-Amino-1-butyloxy)-2-fluoro pyridine p-toluenesulfonic acid]
Ki [1, 3]: 122 nM

CN[C@@H](C)COc1cnc(Cl)c(C)c1.Cc1ccc(S(=O)(=O)O)cc1 [Example 12, 5-[(S)-2-methylamino-1-propyloxy]-2-chloro-3-methyl pyridine p-toluenesulfonic acid]
Ki [1, 2]: 5.47 nM
Analgesic MED (mouse hot plate paradigm): 62 µmol/kg

N[C@H](COc1cnc(Cl)c(Br)c1)Cc1ccccc1 [Example 21, 5-[(S)-2-amino-3-phenyl-1-propyloxy]-2-chloro-3-bromo pyridine p-toluenesulfonic acid]
Ki [1, 2]: 102 nM

C[C@H](N)COc1cnc(Cl)c(C=Cc2ccncc2)c1.Cc1ccc(S(=O)(=O)O)cc1 [Example 13, 5-[(S)-2-amino-1-propyloxy]-2-chloro-3-(4-vinylpyridinyl) pyridine p-toluenesulfonic acid]
Ki [1, 2]: 0.0761 nM
Analgesic MED (μmol/kg) (mouse hot plate paradigm): * (no effect at 62)

Cc1cc(OCCC(C)N)cnc1Cl (stereo not drawn) [Example 49, 5-(3-Amino-1-butyloxy)-2-chloro-3-methyl-pyridine p-toluenesulfonic acid]
Ki [1, 3]: 25 nM

CC(CCOc1ccc(Cl)nc1)N(C)C (stereo not drawn) [Example 45, 5-(3-Dimethylamino-1-butyloxy]-2-chloro pyridine p-toluenesulfonic acid]
Ki [1, 3]: 18 nM

C[C@@H](COc1ccc(Cl)nc1)N(C)C.Cc1ccc(S(=O)(=O)O)cc1 [Example 2, 5-[(S)-2-dimethylamino-1-propyloxy]-2-chloro pyridine p-toluenesulfonic acid]
Analgesic MED (mouse hot plate paradigm): 62 µmol/kg

C[C@@H](COc1cnc(Cl)c(Br)c1)N(C)C.Cc1ccc(S(=O)(=O)O)cc1 [Example 8, 5-[(S)-2-dimethylamino-1-propyloxy]-2-chloro-3-bromo pyridine p-toluenesulfonic acid]
Ki [1, 2]: 30.8 nM
Analgesic MED (mouse hot plate paradigm): 62 µmol/kg

CN[C@H](C)COc1cnc(Cl)c(Br)c1.Cc1ccc(S(=O)(=O)O)cc1 [Example 34, 5-[(R)-2-methylamino-1-propyloxy]-2-chloro-3-bromo pyridine p-toluenesulfonic acid]
Ki [1, 2]: 1.48 nM
Analgesic MED (μmol/kg) (mouse hot plate paradigm): * (no effect at 62)

CN[C@H](C)COc1cnc(Cl)c(C)c1.Cc1ccc(S(=O)(=O)O)cc1 [Example 37, 5-[(R)-2-methylamino-1-propyloxy]-2-chloro-3-methyl pyridine p-toluenesulfonic acid]
Ki [1, 2]: 0.565 nM
Analgesic MED (μmol/kg) (mouse hot plate paradigm): * (no effect at 62)

CN[C@@H](C)COc1ccc(F)nc1.Cc1ccc(S(=O)(=O)O)cc1 [Example 6, 5-[(S)-2-methylamino-1-propyloxy]-2-fluoro pyridine p-toluenesulfonic acid]
Ki [1, 2]: 68.9 nM
Analgesic MED (μmol/kg) (mouse hot plate paradigm): * (no effect at 62)

5-[(R)-2-methylamino-1-propyloxy]-2-chloro-3-(4-vinylpyridinyl) pyridine p-toluenesulfonic acid [Example 40]
Ki [1, 2]: 0.0757 nM

CC(N)CCOc1cnc(Cl)c(Br)c1 (stereo not drawn) [Example 47, 5-(3-Amino-1-butyloxy)-2-chloro-3-bromo-pyridine p-toluenesulfonic acid]
Ki [1, 3]: 31 nM

Cc1cc(OC[C@H](C)N)cnc1Cl.Cc1ccc(S(=O)(=O)O)cc1 [Example 10, 5-[(S)-2-amino-1-propyloxy]-2-chloro-3-methyl pyridine p-toluenesulfonic acid]
Ki [1, 2]: 0.525 nM
Analgesic MED (mouse hot plate paradigm): 62 µmol/kg

Cc1cc(OC[C@@H](C)N)cnc1Cl.Cc1ccc(S(=O)(=O)O)cc1 [Example 35, 5-[(R)-2-amino-1-propyloxy]-2-chloro-3-methyl pyridine p-toluenesulfonic acid]
Ki [1, 2]: 0.985 nM
Analgesic MED (mouse hot plate paradigm): 62 µmol/kg

CC(CCOc1cnc(Cl)c(Br)c1)N(C)C (stereo not drawn) [Example 46, 5-(3-Dimethylamino-1-butyloxy)-2-chloro-3-bromopyridine p-toluenesulfonic acid]
Ki [1, 3]: 3.1 nM

Cc1cc(OC[C@H](C)N(C)C)cnc1Cl.Cc1ccc(S(=O)(=O)O)cc1 [Example 11, 5-[(S)-2-dimethylamino-1-propyloxy]-2-chloro-3-methyl pyridine p-toluenesulfonic acid]
Ki [1, 2]: 9.6 nM
Analgesic MED (μmol/kg) (mouse hot plate paradigm): * (no effect at 62)

CN[C@@H](C)COc1cnc(Cl)c(Br)c1.Cc1ccc(S(=O)(=O)O)cc1 [Example 9, 5-[(S)-2-methylamino-1-propyloxy]-2-chloro-3-bromo pyridine p-toluenesulfonic acid]
Ki [1, 2]: 10.9 nM
Analgesic MED (μmol/kg) (mouse hot plate paradigm): ** (no effect at 6.2)

CCN[C@H](C)COc1ccc(Cl)nc1 [Example 41, 5-[(R)-2-ethylamino-1-propyloxy]-2-chloro pyridine p-toluenesulfonic acid]
Ki [1, 2]: 2310 nM

CC[C@H](N)COc1ccc(F)nc1 [Example 16, 5-[(S)-2-amino-1-butyloxy]-2-fluoro pyridine p-toluenesulfonic acid]
Ki [1, 2]: 39.5 nM

CC(N)COc1ccc(Cl)nc1 (stereo in doubt) [Example 26, 5-[(S)-2-amino-1-propyloxy]-2-chloro pyridine p-toluenesulfonic acid]
Ki ([1]; Ki (nM)): 5.34 nM
Analgesic MED (mouse hot plate paradigm): 62 µmol/kg

CC[C@H](N)COc1cnc(Cl)c(Br)c1.Cc1ccc(S(=O)(=O)O)cc1 [Example 18, 5-[(S)-2-amino-1-butyloxy]-2-chloro-3-bromo pyridine p-toluenesulfonic acid]
Ki [1, 2]: 14.8 nM
Analgesic MED (μmol/kg) (mouse hot plate paradigm): * (no effect at 62)

5-[(S)-2-methylamino-3-phenyl-1-propyloxy]-2-chloro-3-(4-vinylpyridinyl) pyridine di-p-toluenesulfonic acid [Example 25]
Ki [1, 2]: 2.61 nM

C[C@H](COc1cnc(Cl)c(Br)c1)N(C)C [Example 33, 5-[(R)-2-dimethylamino-1-propyloxy]-2-chloro-3-bromo pyridine p-toluenesulfonic acid]
Ki [1, 2]: 11.9 nM

CN(C)[C@H](COc1cnc(Cl)c(Br)c1)Cc1ccccc1 [Example 22, 5-[(S)-2-dimethylamino-3-phenyl-1-propyloxy]-2-chloro-3-bromo pyridine p-toluenesulfonic acid]
Ki [1, 2]: 319 nM

CC[C@@H](COc1ccc(F)nc1)NC [Example 17, 5-[(S)-2-methylamino-1-butyloxy]-2-fluoro pyridine p-toluenesulfonic acid]
Ki [1, 2]: 225 nM

CC(N)CCOc1ccc(Cl)nc1 (stereo not drawn) [Example 44, 5-(3-Amino-1-butyloxy)-2-chloropyridine p-toluenesulfonate]
Ki [1, 3]: 20 nM

C[C@@H](N)COc1cnc(Cl)c(C=Cc2ccncc2)c1 [Example 38, 5-[(R)-2-amino-1-propyloxy]-2-chloro-3-(4-vinylpyridinyl) pyridine p-toluenesulfonic acid]
Ki [1, 2]: 0.0809 nM

Cc1cc(OCCC(C)N(C)C)cnc1Cl (stereo not drawn) [Example 48, 5-(3-dimethylamino-1-butyloxy]-2-chloro-methylpyridine p-toluenesulfonic acid]
Ki [1, 3]: 1.3 nM

5-[(S)-2-amino-1-butyloxy]-2-chloro-3-(4-vinylpyridinyl) pyridine di-p-toluenesulfonic acid [Example 19]
Ki [1, 2]: 0.18 nM
